From publication PMC12454493, “Insight on novel sulfamoylphenyl pyrazole derivatives as anticancer carbonic anhydrase inhibitors” (Molecular Diversity, 2024)
Where “and” joins values, the source holds several entries; their conditions need not be identical. Equal values may be shown once.

Key:
[1] = tested on: HCT-15; test: NCI-60 one-dose SRB screen (Colon Cancer); type: cell-based; settings: Homo sapiens, single dose 10 µM, 48 h, read-out: Growth inhibition percent (GI %)
Description: (§1) The National Cancer Institute (NCI) Developmental Therapeutic Program (www.dtp.nci.nih.gov) selected the 20 novel synthesized compounds 4a-e, 5a-e, 6a-c, 9a-e, 10 and 11 to test for their anticancer activity at a single dose of 10 µM using SRB assay. […] Supplementary Data S3; Table S1 presents the detailed screening results of the most promising compounds. The preliminary screening’s detailed results for the remaining compounds are elucidated in the (Supplementary Data S3; Table S2).
(§2) The guidelines of the Drug Evaluation Branch’s protocol at the NCI in Bethesda served as the basis for the in vitro anticancer screening assays. at one dose 10 µM against a panel of 60 cancer cell lines. The human tumor cell lines used belonged to nine panels: leukemia, melanoma, lung, colon, CNS, ovarian, renal, prostate and breast cancers using the sulforhodamine B (SRB) assay in a 48 h drug exposure protocol.

[2] = tested on: HCC-2998; test: NCI-60 one-dose SRB screen (Colon Cancer); type: cell-based; settings: Homo sapiens, single dose 10 µM, 48 h, read-out: Growth inhibition percent (GI %)
Description: as §1, §2

[3] = tested on: KM12; test: NCI-60 one-dose SRB screen (Colon Cancer); type: cell-based; settings: Homo sapiens, single dose 10 µM, 48 h, read-out: Growth inhibition percent (GI %)
Description: as §1, §2

[4] = tested on: COLO 205; test: NCI-60 one-dose SRB screen (Colon Cancer); type: cell-based; settings: Homo sapiens, single dose 10 µM, 48 h, read-out: Growth inhibition percent (GI %)
Description: as §1, §2

[5] = tested on: HT29; test: NCI-60 one-dose SRB screen (Colon Cancer); type: cell-based; settings: Homo sapiens, HT-29, single dose 10 µM, 48 h, read-out: Growth inhibition percent (GI %)
Description: as §1, §2

[6] = tested on: SW-620; test: NCI-60 one-dose SRB screen (Colon Cancer); type: cell-based; settings: Homo sapiens, single dose 10 µM, 48 h, read-out: Growth inhibition percent (GI %)
Description: as §1, §2

[7] = tested on: HCT-116; test: NCI-60 one-dose SRB screen (Colon Cancer); type: cell-based; settings: Homo sapiens, single dose 10 µM, 48 h, read-out: Growth inhibition percent (GI %)
Description: as §1, §2

[8] = tested on: SK-MEL-5; test: NCI-60 one-dose SRB screen (Melanoma); type: cell-based; settings: Homo sapiens, single dose 10 µM, 48 h, read-out: Growth inhibition percent (GI %)
Description: as §1, §2

[9] = tested on: MDA-MB-435; test: NCI-60 one-dose SRB screen (Melanoma); type: cell-based; settings: Homo sapiens, single dose 10 µM, 48 h, read-out: Growth inhibition percent (GI %)
Description: as §1, §2

[10] = tested on: UACC-62; test: NCI-60 one-dose SRB screen (Melanoma); type: cell-based; settings: Homo sapiens, single dose 10 µM, 48 h, read-out: Growth inhibition percent (GI %)
Description: as §1, §2

[11] = tested on: MALME-3M; test: NCI-60 one-dose SRB screen (Melanoma); type: cell-based; settings: Homo sapiens, single dose 10 µM, 48 h, read-out: Growth inhibition percent (GI %)
Description: as §1, §2

[12] = tested on: UACC-257; test: NCI-60 one-dose SRB screen (Melanoma); type: cell-based; settings: Homo sapiens, single dose 10 µM, 48 h, read-out: Growth inhibition percent (GI %)
Description: as §1, §2

[13] = tested on: SK-MEL-28; test: NCI-60 one-dose SRB screen (Melanoma); type: cell-based; settings: Homo sapiens, single dose 10 µM, 48 h, read-out: Growth inhibition percent (GI %)
Description: as §1, §2

[14] = tested on: LOX IMVI; test: NCI-60 one-dose SRB screen (Melanoma); type: cell-based; settings: Homo sapiens, single dose 10 µM, 48 h, read-out: Growth inhibition percent (GI %)
Description: as §1, §2

[15] = tested on: M14; test: NCI-60 one-dose SRB screen (Melanoma); type: cell-based; settings: Homo sapiens, single dose 10 µM, 48 h, read-out: Growth inhibition percent (GI %)
Description: as §1, §2

[16] = tested on: NCI-H522; test: NCI-60 one-dose SRB screen (Non-Small Cell Lung Cancer); type: cell-based; settings: Homo sapiens, single dose 10 µM, 48 h, read-out: Growth inhibition percent (GI %)
Description: as §1, §2

[17] = tested on: NCI-H226; test: as above; type: cell-based; settings: Homo sapiens, single dose 10 µM, 48 h, read-out: Growth inhibition percent (GI %)
Description: as §1, §2

[18] = tested on: HOP-62; test: as above; type: cell-based; settings: Homo sapiens, single dose 10 µM, 48 h, read-out: Growth inhibition percent (GI %)
Description: as §1, §2

[19] = tested on: NCI-H460; test: as above; type: cell-based; settings: Homo sapiens, single dose 10 µM, 48 h, read-out: Growth inhibition percent (GI %)
Description: as §1, §2

[20] = tested on: NCI-H23; test: as above; type: cell-based; settings: Homo sapiens, single dose 10 µM, 48 h, read-out: Growth inhibition percent (GI %)
Description: as §1, §2

[21] = tested on: NCI-H322M; test: as above; type: cell-based; settings: Homo sapiens, single dose 10 µM, 48 h, read-out: Growth inhibition percent (GI %)
Description: as §1, §2

[22] = tested on: EKVX; test: as above; type: cell-based; settings: Homo sapiens, single dose 10 µM, 48 h, read-out: Growth inhibition percent (GI %)
Description: as §1, §2

[23] = tested on: A549/ATCC; test: as above; type: cell-based; settings: Homo sapiens, single dose 10 µM, 48 h, read-out: Growth inhibition percent (GI %)
Description: as §1, §2

[24] = tested on: OVCAR-4; test: NCI-60 one-dose SRB screen (Ovarian cancer); type: cell-based; settings: Homo sapiens, single dose 10 µM, 48 h, read-out: Growth inhibition percent (GI %)
Description: as §1, §2

[25] = tested on: IGROV1; test: NCI-60 one-dose SRB screen (Ovarian cancer); type: cell-based; settings: Homo sapiens, IGROV-1, single dose 10 µM, 48 h, read-out: Growth inhibition percent (GI %)
Description: as §1, §2

[26] = tested on: OVCAR-3; test: NCI-60 one-dose SRB screen (Ovarian cancer); type: cell-based; settings: Homo sapiens, single dose 10 µM, 48 h, read-out: Growth inhibition percent (GI %)
Description: as §1, §2

[27] = tested on: OVCAR-8; test: NCI-60 one-dose SRB screen (Ovarian cancer); type: cell-based; settings: Homo sapiens, single dose 10 µM, 48 h, read-out: Growth inhibition percent (GI %)
Description: as §1, §2

[28] = tested on: OVCAR-5; test: NCI-60 one-dose SRB screen (Ovarian cancer); type: cell-based; settings: Homo sapiens, single dose 10 µM, 48 h, read-out: Growth inhibition percent (GI %)
Description: as §1, §2

[29] = tested on: SK-OV-3; test: NCI-60 one-dose SRB screen (Ovarian cancer); type: cell-based; settings: Homo sapiens, single dose 10 µM, 48 h, read-out: Growth inhibition percent (GI %)
Description: as §1, §2

[30] = tested on: SF-539; test: NCI-60 one-dose SRB screen (CNS Cancer); type: cell-based; settings: Homo sapiens, single dose 10 µM, 48 h, read-out: Growth inhibition percent (GI %)
Description: as §1, §2

[31] = tested on: SNB-75; test: NCI-60 one-dose SRB screen (CNS Cancer); type: cell-based; settings: Homo sapiens, single dose 10 µM, 48 h, read-out: Growth inhibition percent (GI %)
Description: as §1, §2

[32] = tested on: SF-268; test: NCI-60 one-dose SRB screen (CNS Cancer); type: cell-based; settings: Homo sapiens, single dose 10 µM, 48 h, read-out: Growth inhibition percent (GI %)
Description: as §1, §2

[33] = tested on: SNB-19; test: NCI-60 one-dose SRB screen (CNS Cancer); type: cell-based; settings: Homo sapiens, single dose 10 µM, 48 h, read-out: Growth inhibition percent (GI %)
Description: as §1, §2

[34] = tested on: U251; test: NCI-60 one-dose SRB screen (CNS Cancer); type: cell-based; settings: Homo sapiens, U-251, single dose 10 µM, 48 h, read-out: Growth inhibition percent (GI %)
Description: as §1, §2

[35] = tested on: SF-295; test: NCI-60 one-dose SRB screen (CNS Cancer); type: cell-based; settings: Homo sapiens, single dose 10 µM, 48 h, read-out: Growth inhibition percent (GI %)
Description: as §1, §2

[36] = molecular target: hCA XII (Homo sapiens, UniProt O43570); test: CA inhibitory activity, spectrophotometric p-NPA assay; type: biochemical; settings: p-NPA substrate, pH 7.5, 25 °C, triplicate; read-out: IC50 (µM) ± SD hCA XII
hCA XII, sequence (O43570 25-354): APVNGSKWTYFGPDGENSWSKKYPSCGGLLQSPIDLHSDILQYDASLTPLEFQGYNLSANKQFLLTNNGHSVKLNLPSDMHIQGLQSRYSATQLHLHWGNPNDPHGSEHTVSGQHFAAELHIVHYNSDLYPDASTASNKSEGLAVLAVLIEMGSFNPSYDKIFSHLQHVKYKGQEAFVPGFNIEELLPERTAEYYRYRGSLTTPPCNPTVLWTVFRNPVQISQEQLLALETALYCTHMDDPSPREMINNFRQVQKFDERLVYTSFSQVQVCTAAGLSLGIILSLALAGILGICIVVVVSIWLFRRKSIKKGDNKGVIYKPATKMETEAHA

[37] = molecular target: hCA IX (Homo sapiens, UniProt Q16790); test: as above; type: biochemical; settings: p-NPA substrate, pH 7.5, 25 °C, triplicate; read-out: IC50 (µM) ± SD hCA IX
[38] = tested on: MOLT-4; test: NCI-60 one-dose SRB screen (Leukemia); type: cell-based; settings: Homo sapiens, single dose 10 µM, 48 h, read-out: Growth inhibition percent (GI %)
Description: as §1, §2

[39] = tested on: SR; test: NCI-60 one-dose SRB screen (Leukemia); type: cell-based; settings: Homo sapiens, single dose 10 µM, 48 h, read-out: Growth inhibition percent (GI %)
Description: as §1, §2

[40] = tested on: K-562; test: NCI-60 one-dose SRB screen (Leukemia); type: cell-based; settings: Homo sapiens, K562, single dose 10 µM, 48 h, read-out: Growth inhibition percent (GI %)
Description: as §1, §2

[41] = tested on: RPMI-8226; test: NCI-60 one-dose SRB screen (Leukemia); type: cell-based; settings: Homo sapiens, single dose 10 µM, 48 h, read-out: Growth inhibition percent (GI %)
Description: as §1, §2

[42] = tested on: HL-60(TB); test: NCI-60 one-dose SRB screen (Leukemia); type: cell-based; settings: Homo sapiens, single dose 10 µM, 48 h, read-out: Growth inhibition percent (GI %)
Description: as §1, §2

[43] = tested on: CCRF-CEM; test: NCI-60 one-dose SRB screen (Leukemia); type: cell-based; settings: Homo sapiens, single dose 10 µM, 48 h, read-out: Growth inhibition percent (GI %)
Description: as §1, §2

NS(=O)(=O)c1ccc(NC(=O)COC(=O)c2cn(-c3ccc(S(N)(=O)=O)cc3)nc2-c2ccc(Br)cc2)cc1 [Compound 4d, 2-Oxo-2-[(4-sulfamoylphenyl)amino] ethyl 3-(4-bromophenyl)-1-(4-sulfamoylphenyl)-1H-pyrazole-4-carboxylate]
inhibition at 10 µM [1]: 10.6% | inhibition at 10 µM [2]: < 5% | inhibition at 10 µM [3]: < 5% | inhibition at 10 µM [4]: 8.46% | inhibition at 10 µM [5]: < 5% | inhibition at 10 µM [6]: < 5% | inhibition at 10 µM [7]: 84.6% | inhibition at 10 µM [8]: 14.3% | inhibition at 10 µM [9]: 60.1% | inhibition at 10 µM [10]: 11.9% | inhibition at 10 µM [11]: < 5% | inhibition at 10 µM [12]: < 5% | inhibition at 10 µM [13]: < 5% | inhibition at 10 µM [14]: 47.7% | inhibition at 10 µM [15]: 79.6% | inhibition at 10 µM [16]: 19.8% | inhibition at 10 µM [17]: < 5% | inhibition at 10 µM [18]: < 5% | inhibition at 10 µM [19]: < 5% | inhibition at 10 µM [20]: < 5% | inhibition at 10 µM [21]: 21.5% | inhibition at 10 µM [22]: 21% | inhibition at 10 µM [23]: < 5% | inhibition at 10 µM [24]: 34.6% | inhibition at 10 µM [25]: < 5% | inhibition at 10 µM [26]: 23% | inhibition at 10 µM [27]: < 5% | inhibition at 10 µM [28]: 12.3% | inhibition at 10 µM [29]: < 5% | inhibition at 10 µM [30]: 26.7% | inhibition at 10 µM [31]: 64.3% | inhibition at 10 µM [32]: 34.8% | inhibition at 10 µM [33]: 24.1% | inhibition at 10 µM [34]: 25% | inhibition at 10 µM [35]: < 5% | IC50 [36]: 0.81 µM and 0.814 µM | IC50 [37]: 0.5 µM and 0.509 µM | inhibition at 10 µM [38]: 60.1% | inhibition at 10 µM [39]: 22.9% | inhibition at 10 µM [40]: 82.5% | inhibition at 10 µM [41]: < 5% | inhibition at 10 µM [42]: 37.6% | inhibition at 10 µM [43]: 60.2%
